Experiment [1] has as its system Candida albicans (ATCC 10231). Put plainly: Candida albicans anti-fungal MIC potency determination. The experiment is classed as cell-based. On the procedure: The wild type Candida albicans (ATCC 10231) was used and Fluconazole, amphotericin B, itraconazole and terbinafine were purchased from Sigma and used as positive controls.
The highest assay concentration for all test compounds and fluconazole was 100 μM. Fluconazole was also tested at the highest concentration of 64 μg/ml, and amphotercin B and terbinafine at 16 and 64 μg/ml. The test compounds were in DMSO stock solution at a concentration of 10 mM. Two stock solutions in DMSO were prepared for fluconazole at 10 mM and 6.4 mg/ml. Amphotericin B and terbinafine stock solutions in DMSO were prepared at 1.6 and 6.4 mg/ml.
Serial dilution of 100× stock solutions: 4 μl of stock solution was added into 196 μl of RPMI1640 (MOPS buffered and free of HEPES and sodium bicarbonate) in the first well of a row of a sterile u-bottom 96-well plate. The rest of the wells was filled with 100 μl RPMI1640. The 2-fold serial dilution was made sequentially by transferring 100 μl solution to the next well and mixing by pipetting, until 11th well. The extra 100 μl in 11th well was discarded. Therefore, the compound wells contained 100 μl of 2× of testing concentrations of drugs in RPMI1640. The 12th well was filled with only 100 μl RPMI1640.
C. albicans 3147 (ATCC 10231) glycerol frozen stock was streaked on Sabouraud dextrose agar (SDA). The plate was incubated at 35° C. ambient atmosphere for 20 h. Single colonies were suspended into sterile saline until turbidity reached 0.1 (1-5×10^6 CFU/ml) using a Siemens turbidity meter. This suspension was diluted 50× in RPMI1640 in a 15 ml conical, and then it was further diluted 20× in RPMI1640 in a 50 ml conical. This gave 1-5×10^3 CFU/ml suspension and was used as inoculum. The cell density in inoculum was plate-counted to be 4.94×10^3 CFU/ml.
The plates were incubated at 35° C. in ambient atmosphere. The photos were taken at 24 h and 48 h. The MIC end points for fluconazole and amphotericin B were read according to the M27-A3 protocol (Reference Method for Broth Dilution Antifungal Susceptibility Testing of Yeasts; Approved Standard-Third Edition, M27-A3 standard published Jan. 1, 2008 by Clinical and Laboratory Standards Institute). The MIC for compounds for test cmpds and terbinafine (not mentioned in M27-A3 protcol) were read as if they were azoles.

In experiment [2] the test system is fibroblast to myofibroblast transdifferentiation (primary human lung fibroblasts and primary rodent HSCs). Put plainly: High content imaging and western based assay of fibroblast to myofibroblast transdifferentiation (α-SMA). The experiment is classed as cell-based. Conditions: graded, TGF-β induced fibroblast to myofibroblast transdifferentiation. The source says:
A high content imaging assay, based on α-SMA staining and cell morphological changes associated with fibroblast to myofibroblast transdifferentiation, was established using primary human lung fibroblasts and primary rodent HSCs. Conditions, involving serum starvation and subsequent TGF-β treatment, were identified that facilitate robust in vitro transdifferentiation in a miniaturized (384 well plate) format that is amenable to high throughput small molecule screening. A selective ALK-5 TGF-β1 receptor inhibitor (SB-431542) was used as a positive control. […] This assay was used to identify a hit compound (itraconazole) and was used to evaluate focused panels of itraconazole analogues generated from medicinal chemistry efforts.
The activity of Itraconazole and its analogues was confirmed by analyzing changes in gene expression of multiple genes associated with fibroblast to myofibroblast transdifferentiation using biochemical methods (i.e., Western blot and RT-PCR). These 4-day assays were used to evaluate sets of 6 compounds at a time in 4-point dose response fashion.
After 24 hour incubation, cells were treated with the indicated doses of itraconazole for 48 hours in the presence of 10 ng/mL of TGF-β1 in hepatic stellate medium. Following fixation and staining with an anti smooth muscle actin antibody, cell morphology was analyzed with a Cellomics cell insight imaging reader (FIG. 1 for representative images). Cells were analyzed for mean cellular area of a-SMA staining (FIG. 5a) or mean fluorescence intensity of SMA staining (FIG. 5b).
After 24 incubation, medium was changed to assay medium containing TGF-β1 (10 ng/mL) and simultaneously treated with itraconazole (10 μM), SB431542 (10 μM) or vehicle control (FIG. 6).

The target in another experiment is Cyp3A4 (Homo sapiens, UniProt P08684). Put plainly: Cyp reversible inhibition assay (human liver microsomes). The protocol: The purpose of this assay was to determine reversible inhibition of Cyp enzyme with a given compound using a substrate probe turnover as the surrogate for inhibition. This was done with human liver microsomes rather an isolated enzyme to account for metabolites of parent drug leading to a potential drug-drug interaction through Cyp inhibition. The substrate turnover (for example conversion of midazolam to hydroxyl midazolam) was monitored by LCMSMS (Q1/Q2=342.2/203.2). Test compounds were tested in a 7-point dose response curve starting from 50 μM to 50 nM (˜3-fold dilution series).
Sequence of Cyp3A4 (P08684 whole entry): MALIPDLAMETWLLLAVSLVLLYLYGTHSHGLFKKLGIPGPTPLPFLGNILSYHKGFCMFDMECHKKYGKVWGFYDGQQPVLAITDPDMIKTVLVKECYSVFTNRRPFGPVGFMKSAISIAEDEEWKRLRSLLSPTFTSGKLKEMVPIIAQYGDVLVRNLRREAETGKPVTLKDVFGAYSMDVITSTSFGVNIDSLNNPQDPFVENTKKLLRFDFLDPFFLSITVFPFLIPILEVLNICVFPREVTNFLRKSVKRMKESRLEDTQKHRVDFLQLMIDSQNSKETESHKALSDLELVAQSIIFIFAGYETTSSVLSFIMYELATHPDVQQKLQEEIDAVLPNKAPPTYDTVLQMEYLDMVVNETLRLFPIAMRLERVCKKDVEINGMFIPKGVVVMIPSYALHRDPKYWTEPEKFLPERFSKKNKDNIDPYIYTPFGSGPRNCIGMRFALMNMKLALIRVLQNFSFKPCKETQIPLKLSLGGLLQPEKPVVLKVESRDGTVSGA
The detailed protocol was as follows: • Prepared test compounds and standard inhibitors working solution (100×) • Pulled microsomes out of the −80° C. freezer to thaw on ice, labeled with the date and put back to freezer immediately after using. • Added 20 μL of the substrate solutions to corresponding wells. • Added 20 μL PB to Blank wells. • Added 2 μL of the test compounds and positive control working solution to corresponding wells. • Added 2 μL MeOH to No Inhibitor wells and Blank wells. • Prepared HLM working solution. • Added 158 μL of the HLM working solution to all wells of incubation plate. • Pre-warmed the plate for about 10 min at 37° C. water bath. • Prepared NADPH cofactor solution. • Added 20 μL NADPH cofactor to all incubation wells. • Mixed and incubated for 10 minutes at 37° C. water bath. • At the time point, terminated the reaction by adding 400 μL cold stop solution (200 ng/mL Tolbutamide in ACN). • Centrifuged the samples at 4000 rpm for 20 minutes to precipitate protein. • Transferred 200 μL supernatant to 200 μL HPLC water and shook for 10 min. • Analyzed samples by LC/MS/MS.
In general terms: Microsomes from liver hold many membrane-bound enzymes, among them those of drug oxidation.

[3] abbreviates: ATCC10231, 24 h, read-out: C. Albicans MIC90 at 24 h.
The mark [4] stands for this setting: ATCC10231, 48 h, read-out: C. Albicans MIC90 at 48 h.
Where [5] appears, read: Cyp 3A4 midazolam LCMS IC50, human liver microsomes, substrate midazolam.
Setting [6] is: Cyp 3A4 testosterone LCMS IC50, human liver microsomes, substrate testosterone.

Here are results for four compounds from patent publication US9981956B2, “Small molecule inhibitors of fibrosis” (THE CALIFORNIA INSTITUTE FOR BIOMEDICAL RESEARCH, priority 2013, dated 2018).

The structures appear in SMILES notation. ≈ marks a conversion by molar mass, not a printed value. Where “and” joins values, the source holds several entries; their conditions need not be identical. Equal entries are not always repeated. Where two headings read alike, the source gives them in different places.

As for `CCC(C)n1ncn(-c2ccc(N3CCN(c4ccc(OC[C@@H]5CO[C@@](Cn6nccn6)(c6ccc(Cl)cc6Cl)O5)cc4F)CC3)cc2)c1=O` (some centres unmarked) [Compound 54], the MIC90 in experiment [1] (setting [3]) and in experiment [1] (setting [4]) was greater than 100 µM throughout. The half-maximal effective concentration (EC50) in experiment [2] was less than 500 nM. Moreover, the IC50 against Cyp3A4 (setting [5]) and against Cyp3A4 (setting [6]) was greater than 50000 nM in each case.
`CCC(C)n1ncn(-c2ccc(N3CCN(c4ccc(OC[C@@H]5CO[C@@](Cn6nccn6)(c6ccc(Cl)cc6Cl)O5)c(C#N)c4)CC3)cc2)c1=O` (some centres unmarked) [Compound 79]: the MIC90 in experiment [1] (setting [3]) and in experiment [1] (setting [4]) was greater than 100 µM in each case. In addition, in experiment [2], the EC50 was 500 to 5000 nM. The IC50 on Cyp3A4 (setting [5]) and on Cyp3A4 (setting [6]) was greater than 50000 nM in each case.
Take `CCC(C)n1ncn(-c2ccc(N3CCN(c4ccc(OC[C@@H]5CO[C@@](Cc6ccnnc6)(c6ccccc6)O5)cc4)CC3)cc2)c1=O` (some centres unmarked) [Compound 84]: the MIC90 in experiment [1] (setting [3]) and in experiment [1] (setting [4]) was greater than 100 µM each time. In experiment [2], this compound showed an EC50 of 500 to 5000 nM. For the same compound, the IC50 was 2550 nM and 2350 nM on Cyp3A4 (setting [5]); 1770 nM at Cyp3A4 (setting [6]).
`CCC(C)n1ncn(-c2ccc(N3CCN(c4ccc(OC[C@@H]5CO[C@@](CCn6cncn6)(c6ccc(Cl)cc6Cl)O5)cc4)CC3)cc2)c1=O` (some centres unmarked) [Compound 100]: the MIC90 in experiment [1] (setting [3]) was determined as 0.781 µM (≈ 0.562 µg/mL); in experiment [1] (setting [4]) it was 1.56 µM (≈ 1.12 µg/mL). Besides, in experiment [2], the EC50 is less than 500 nM. For the same compound, the IC50 is 372 nM against Cyp3A4 (setting [5]) and 545 nM on Cyp3A4 (setting [6]).

One may read the MIC90 as an inhibitory concentration at the 90% level, which refers to growth in some studies and to a panel of isolates in others. What is called EC50 is the concentration needed to bring the measured effect to its halfway point. A low value points to greater potency. Broadly, the IC50 is the point on the concentration scale where inhibition reaches its midpoint. Low values mean greater potency in that assay, high ones weaker potency in that assay.
